Patent publication US7235299B2, “Beads of a phenolic compound and a method of obtaining same” (Rhodia Chimie, priority 2002, dated 2007)

Columns and labels:
[1] = acrylic acid at 20° C.
[2] = methyl methacrylate at 20° C.

Oc1ccc(O)cc1 [crystalline hydroquinone, hydroquinone]
dissolution time in acrylic acid [1]: 10 min | dissolution time in methyl methacrylate [2]: 3 min
